Measurements: ChEMBL document CHEMBL1201862, “PubChem BioAssay data set” (2004)
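Briefly, cells in 96-well plates were exposed to five compound concentrations for 48 h, and endpoints were estimated by linear interpolation. GI50 = concentration required for 50% inhibition of growth.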 Activity calls are given as the source filed them. No stated cut-off is given here; in the data, active = GI50 up to about 1.1 µM and inactive = higher.

How the values were obtained:
Test in all cases: NCI tumour cell line growth inhibition, 48 h
K562 = system: K562
SK-MEL-28 = system: SK-MEL-28
MDA-N = system: MDA-N
CCRF-CEM = system: CCRF-CEM
HT-29 = system: HT-29
HL-60 = system: HL-60
IGROV-1 = system: IGROV-1
786-0 = system: 786-0
OVCAR-3 = system: OVCAR-3
HCT-116 = system: HCT-116
OVCAR-5 = system: OVCAR-5
BT-549 = system: BT-549
HCT-15 = system: HCT-15
SF-295 = system: SF-295
MDA-MB-435 = system: MDA-MB-435
NCI-H460 = system: NCI-H460
SNB-75 = system: SNB-75
Malme-3M = system: Malme-3M
SNB-19 = system: SNB-19
DMS-114 = system: DMS-114

| Structure (SMILES) | GI50 (K562) | GI50 (SK-MEL-28) | GI50 (MDA-N) | GI50 (CCRF-CEM) | GI50 (HT-29) | GI50 (HL-60) | GI50 (IGROV-1) | GI50 (786-0) | GI50 (OVCAR-3) | GI50 (HCT-116) | GI50 (OVCAR-5) | GI50 (BT-549) | GI50 (HCT-15) [µM] | GI50 (SF-295) | GI50 (MDA-MB-435) | GI50 (NCI-H460) | GI50 (SNB-75) | GI50 (Malme-3M) | GI50 (SNB-19) | GI50 (DMS-114) |
| --- | --- | --- | --- | --- | --- | --- | --- | --- | --- | --- | --- | --- | --- | --- | --- | --- | --- | --- | --- | --- |
| Cn1c(=O)c2nc(SCCN3CCOCC3)[nH]c2n(C)c1=S | > 100 µM (inactive) | > 100 µM (inactive) | > 100 µM (inactive) | > 100 µM (inactive) | > 100 µM (inactive) | > 100 µM (inactive) | > 100 µM (inactive) | > 100 µM (inactive) | > 100 µM (inactive) | > 100 µM (inactive) | > 100 µM (inactive) | > 100 µM (inactive) | > 100 | > 100 µM (inactive) | > 100 µM (inactive) | > 100 µM (inactive) | > 100 µM (inactive) | > 100 µM (inactive) | > 100 µM (inactive) | – |
| O=[N+]([O-])c1ccc(/C=N/C23CC4CC(CC(C4)C2)C3)cc1 | 54.7 µM (inactive) | > 100 µM (inactive) | – | 80.4 µM (inactive) | > 100 µM (inactive) | 71.3 µM (inactive) | > 100 µM (inactive) | > 100 µM (inactive) | > 100 µM (inactive) | > 100 µM (inactive) | > 100 µM (inactive) | – | > 100 | > 100 µM (inactive) | – | > 100 µM (inactive) | > 100 µM (inactive) | > 100 µM (inactive) | > 100 µM (inactive) | 91.2 µM (inactive) |
| CC1=NN(C(=O)Cc2ccccc2)C(=O)/C1=C\c1ccc([N+](=O)[O-])cc1 | > 100 µM (inactive) | > 100 µM (inactive) | – | > 100 µM (inactive) | > 100 µM (inactive) | – | > 100 µM (inactive) | > 100 µM (inactive) | > 100 µM (inactive) | > 100 µM (inactive) | > 100 µM (inactive) | – | > 100 | > 100 µM (inactive) | – | > 100 µM (inactive) | – | > 100 µM (inactive) | > 100 µM (inactive) | > 100 µM (inactive) |
| N#CCN1C(=O)c2cc([N+](=O)[O-])cc3cc([N+](=O)[O-])cc(c23)C1=O | 5.68 µM (inactive) | 19 µM (inactive) | – | 2.77 µM (inactive) | 16.8 µM (inactive) | 3.21 µM (inactive) | 13.2 µM (inactive) | 11.8 µM (inactive) | 13.4 µM (inactive) | 7.18 µM (inactive) | 18.9 µM (inactive) | – | 6.71 | 30.5 µM (inactive) | – | 14.9 µM (inactive) | 26.1 µM (inactive) | 14.8 µM (inactive) | 24.2 µM (inactive) | 15.2 µM (inactive) |
| O=c1c2ccccc2nc(-c2cccc(Cl)c2)n1NCC1(O)OCC(O)C(O)C1O (stereo unspecified) | 45.7 µM (inactive) | > 100 µM (inactive) | – | 41.7 µM (inactive) | > 100 µM (inactive) | 30.7 µM (inactive) | – | > 100 µM (inactive) | > 100 µM (inactive) | > 100 µM (inactive) | > 100 µM (inactive) | – | > 100 | > 100 µM (inactive) | – | > 100 µM (inactive) | > 10 µM (inactive) | > 100 µM (inactive) | > 100 µM (inactive) | > 100 µM (inactive) |
| CCOC(=O)CC(C)C1(C(=O)OCC)CCCCC1=O (stereo unspecified) | > 100 µM (inactive) | > 100 µM (inactive) | – | > 100 µM (inactive) | > 100 µM (inactive) | > 100 µM (inactive) | > 100 µM (inactive) | 55 µM (inactive) | > 100 µM (inactive) | 46 µM (inactive) | > 100 µM (inactive) | – | 22.9 | > 100 µM (inactive) | – | > 100 µM (inactive) | > 100 µM (inactive) | > 100 µM (inactive) | > 100 µM (inactive) | 20.3 µM (inactive) |
| NC1=C(O)c2cccc3cccc(c23)C1=O | > 100 µM (inactive) | > 100 µM (inactive) | – | > 100 µM (inactive) | > 100 µM (inactive) | > 100 µM (inactive) | > 100 µM (inactive) | > 100 µM (inactive) | > 100 µM (inactive) | > 100 µM (inactive) | > 100 µM (inactive) | – | > 100 | > 100 µM (inactive) | – | – | > 100 µM (inactive) | > 100 µM (inactive) | > 100 µM (inactive) | > 100 µM (inactive) |
| COC(=O)N/N=C(/CCC(=O)Nc1ccc(C)c(C)c1)CC(=O)C(C)(C)C | > 100 µM (inactive) | > 100 µM (inactive) | – | > 100 µM (inactive) | > 100 µM (inactive) | > 100 µM (inactive) | > 100 µM (inactive) | > 100 µM (inactive) | > 100 µM (inactive) | – | > 100 µM (inactive) | – | > 100 | > 100 µM (inactive) | – | > 100 µM (inactive) | > 100 µM (inactive) | > 100 µM (inactive) | > 100 µM (inactive) | > 100 µM (inactive) |
| COc1cc2oc(-c3ccc4c(c3)OCO4)c(OC)c(=O)c2c(O)c1OC | 27.9 µM (inactive) | > 50 µM (inactive) | > 50 µM (inactive) | > 50 µM (inactive) | > 50 µM (inactive) | > 50 µM (inactive) | > 50 µM (inactive) | > 50 µM (inactive) | > 50 µM (inactive) | > 50 µM (inactive) | > 50 µM (inactive) | 34.9 µM (inactive) | > 50 | 43.8 µM (inactive) | 26.9 µM (inactive) | > 50 µM (inactive) | 28.6 µM (inactive) | > 50 µM (inactive) | > 50 µM (inactive) | – |
| OCc1cc2c(cn1)[nH]c1ccc(NCc3ccccc3)cc12 | 23 µM (inactive) | 16.1 µM (inactive) | – | 20.7 µM (inactive) | 14.8 µM (inactive) | 12.1 µM (inactive) | 43 µM (inactive) | 25.2 µM (inactive) | 19.4 µM (inactive) | 16.4 µM (inactive) | 27.7 µM (inactive) | – | 27.2 | 22.3 µM (inactive) | – | 24.4 µM (inactive) | 25.5 µM (inactive) | 28.7 µM (inactive) | 37.3 µM (inactive) | 15.6 µM (inactive) |
| COc1ccc(Cc2c3cc(O)c([O-])cc3cc[n+]2C)cc1 | 6.61 µM (inactive) | 22.3 µM (inactive) | – | 4.95 µM (inactive) | 52.7 µM (inactive) | 16.3 µM (inactive) | 30.3 µM (inactive) | 10.2 µM (inactive) | 27.7 µM (inactive) | 19.4 µM (inactive) | 33.7 µM (inactive) | – | – | 19.9 µM (inactive) | – | 5.68 µM (inactive) | 48.2 µM (inactive) | 30.7 µM (inactive) | 35 µM (inactive) | 12.8 µM (inactive) |
| C/C(=N\NC(=O)c1ccc(Cl)cc1)c1nc2cccnc2[nH]1 | 42.6 µM (inactive) | 27 µM (inactive) | 30.5 µM (inactive) | 10.4 µM (inactive) | 45.9 µM (inactive) | 32.7 µM (inactive) | 15.1 µM (inactive) | 16 µM (inactive) | 22.9 µM (inactive) | 32.6 µM (inactive) | > 100 µM (inactive) | 22.3 µM (inactive) | 11.7 | 45.8 µM (inactive) | 25.2 µM (inactive) | 14.7 µM (inactive) | 3.26 µM (inactive) | 14.2 µM (inactive) | 18.9 µM (inactive) | – |
| CC(C)SC1SCC2C(=O)N(C)C3(CC3C)C(=O)OCC(NC(=O)c3nc4ccccc4cc3O)C(=O)NC(C)C(=O)N(C)C1C(=O)N(C)C1(CC1C)C(=O)OCC(NC(=O)c1nc3ccccc3cc1O)C(=O)NC(C)C(=O)N2C (stereo unspecified) | < 0.0001 µM (active) | < 0.0001 µM (active) | < 0.0001 µM (active) | < 0.0001 µM (active) | < 0.0001 µM (active) | < 0.0001 µM (active) | < 0.0001 µM (active) | < 0.0001 µM (active) | < 0.0001 µM (active) | < 0.0001 µM (active) | < 0.0001 µM (active) | 0.01 µM (active) | < 0.0001 | < 0.0001 µM (active) | < 0.0001 µM (active) | < 0.0001 µM (active) | < 0.0001 µM (active) | < 0.0001 µM (active) | < 0.0001 µM (active) | – |
| Nc1nc2c(ncn2CC(CO)CC(c2ccccc2)P(=O)(O)O)c(=O)[nH]1 (stereo unspecified) | > 100 µM (inactive) | > 100 µM (inactive) | – | > 100 µM (inactive) | > 100 µM (inactive) | > 100 µM (inactive) | > 100 µM (inactive) | > 100 µM (inactive) | > 100 µM (inactive) | > 100 µM (inactive) | > 100 µM (inactive) | – | > 100 | > 100 µM (inactive) | – | > 100 µM (inactive) | – | > 100 µM (inactive) | > 100 µM (inactive) | > 100 µM (inactive) |
| CC1=CC(=O)CC2(C)CC[C@@H]3C[C@]12OC3(C)C (stereo partly specified) | > 100 µM (inactive) | > 100 µM (inactive) | – | > 100 µM (inactive) | > 100 µM (inactive) | > 100 µM (inactive) | > 100 µM (inactive) | > 100 µM (inactive) | > 100 µM (inactive) | > 100 µM (inactive) | > 100 µM (inactive) | – | > 100 | > 100 µM (inactive) | – | > 100 µM (inactive) | > 100 µM (inactive) | > 100 µM (inactive) | > 100 µM (inactive) | > 100 µM (inactive) |
| N=C1NC(=O)N2CC12 (stereo unspecified) [IMEXON] | 73.1 µM (inactive) | > 100 µM (inactive) | – | 50.8 µM (inactive) | > 100 µM (inactive) | 30.5 µM (inactive) | > 100 µM (inactive) | > 100 µM (inactive) | > 100 µM (inactive) | – | – | – | > 100 | > 100 µM (inactive) | – | > 100 µM (inactive) | > 100 µM (inactive) | > 100 µM (inactive) | > 100 µM (inactive) | > 100 µM (inactive) |
